In experiment [1] the test system is L1210 cells. As to the kind of experiment: L1210 activity (bioliquid assay), cytotoxicity. Format: cell-based. The following applies: for IC50: Mus musculus; for ID-50 L1210: 2880 min. An excerpt:
The indoloquinones II (formula II) have been tested in respect of their cytotoxic activity against L1210 cells and R-1 cells (Rhabdomyosarcoma Cells) in a bioliquid assay at the department of oncology of the Free University of Amsterdam (Table I). In addition to this seven compounds (E.O. 1, E.O. 2, E.O. 4, E.O. 7, E.O. 9, E.O. 16 and E.O. 17) have been tested on L1210 activity in a clonogenic assay at TNO, Rijswijk. Further, the lowest active doses of the compounds E.O. 1, E.O. 2, E.O. 4 and E.O. 9 have been determined at TNO Rijswijk, according to the method described by Lamberts et al. [Oncology, 40, 301 (1983)]. (Table II). Eight indoloquinones (E.O. 1, E.O. 2, E.O. 4, E.O. 4A, E.O. 8, E.O. 9, E.O. 33 and E.O. 35) have been tested in a panel of five human tumour lines (TNO Rijswijk; Table III). From the latter group three indoloquinones (E.O. 1, E.O. 4 and E.O. 9) have been selected for a cytotoxicity study, involving five slowly growing human tumour lines (University of Freiburg; Table IV).
For this purpose, L1210 cells were grown, as suspension, in Falcon multi-wells (growth area: 9.6 cm^2) using RPMI supplemented with 15% FCS and 2-mercapto-ethanol (60 μmol) as medium. In this medium, the cells were continuously incubated with the compound to be tested at 37° C. in an atmosphere of 5% CO2 in humidified air for 48 hours. Thereupon they were counted on a Sysmex microcell counter (CC110).
(§1) The in vitro L1210 and R-1 activities of the indoloquinones (formula III), were also determined in the bioliquid assays as described above.

Experiment [2] relates to R-1 cells (Rhabdomyosarcoma Cells). As to the kind of experiment: R-1 activity (bioliquid assay), cytotoxicity. It counts as cell-based. Conditions: for IC50: Rhabdomyosarcoma cell.
Text: The indoloquinones II (formula II) have been tested in respect of their cytotoxic activity against L1210 cells and R-1 cells (Rhabdomyosarcoma Cells) in a bioliquid assay at the department of oncology of the Free University of Amsterdam (Table I). […] (Table II). Eight indoloquinones (E.O. 1, E.O. 2, E.O. 4, E.O. 4A, E.O. 8, E.O. 9, E.O. 33 and E.O. 35) have been tested in a panel of five human tumour lines (TNO Rijswijk; Table III).
For the determination of the R-1 activity, Rhabdomyosarcoma cells were brought into Falcon multiwells (growth area: 9.6 cm^2) (~10^6 cells per dish) containing 3 ml of Dulbecco's medium supplemented with 10% Foeto Calf Serum (FCS). […] Thereupon the drug solution was removed and the cells were covered with fresh medium. After 48 hours the cells were trypsinized and counted on a Sysmex microcell counter (CC110).
as §1

Setting [3] is: L1210, Table I, bioliquid assay, 48 hours, read-out: ID-50 L1210.
[4] abbreviates: Table I, bioliquid assay, read-out: ID-50 R-1.
The mark [5] stands for this setting: L1210, 48 h, read-out: ID-50 L1210, Table VIII.
[6] abbreviates: read-out: ID-50 R-1, Table VIII.
[7] abbreviates: L1210, 48 h, Table IA, para-indoloquinone diesters, read-out: ID-50 L1210.
[8] abbreviates: Table IA, para-indoloquinone diesters, read-out: ID-50 R-1.

Converted amounts (≈) assume the structure as drawn. Where two headings read alike, the source gives them in different places.

For the compound `COC1=CC(=O)c2c(c(CO)c(/C=C/COC(C)=O)n2C)C1=O` [E.O. 1A, 3-Hydroxymethyl-5-methoxy-1-methyl-2-[1H-indole-4,7-dione]prop-β-en-α-yl acetate], the values for the IC50 in experiment [1] (setting [3]) and in experiment [2] (setting [4]) were 2.8 µg/mL and 3.2 µg/mL, respectively.
For `COC1=CC(=O)c2c(c(COC(C)=O)c(/C=C/CO)n2C)C1=O` [E.O. 1B, 3-Acetoxymethyl-5-methoxy-1-methyl-2-[1H-indole-4,7-dione]prop-β-en-α-ol] the same measures were 0.9 µg/mL (≈ 2.82 µM) and 0.05 µg/mL (≈ 0.157 µM).
For the compound `COC1=CC(=O)c2c(c(COC(N)=O)c(/C=C/COC(N)=O)n2C)C1=O` [E.O. 3, 3-Carbamoyloxymethyl-5-methoxy-1-methyl-2-[1H-indole-4,7-dione]prop-β-en-α-yl carbamate], the IC50 was 8 µg/mL (≈ 22 µM) in experiment [1] (setting [3]) and greater than 10 µg/mL in experiment [2] (setting [4]).
For the compound `CC(=O)OC/C=C/c1c(COC(C)=O)c2c(n1C)C(=O)C=C(NCCO)C2=O` [E.O. 5, 3-Acetoxymethyl-5-(2-hydroxyethyl-1-amino)-1-methyl-2-[1H-indole-4,7-dione]prop-β-en-αyl acetate], the IC50 in experiment [1] (setting [3]) was greater than 10 µg/mL; in experiment [2] (setting [4]), greater than 10 µg/mL; in experiment [2] (Table VI, read-out: ID-50 R-1), greater than 10 µg/mL. Moreover, the “ID-50 L1210” value in experiment [1] (Table VI) was greater than 10 µg/mL.
With `COCc1c2c(n(C)c1/C=C/COC(=O)NCCCl)C(=O)C=C(OC)C2=O` [E.O. 10, 5-Methoxy-3-methoxymethyl-1-methyl-2-[1H-indole-4,7-dione]prop-β-en-α-yl N-[2-chloro-1-ethyl]carbamate], the IC50 in experiment [1] (setting [3]) and in experiment [2] (setting [4]) was greater than 10 µg/mL throughout. Besides, the “ID-50 L1210” value in experiment [1] (Table VII) was greater than 10 µg/mL. The “ID-50 R-1” value in experiment [2] (Table VII) was greater than 10 µg/mL.
For `COC1=CC(=O)c2c(c(COC(=O)NCCCl)c(/C=C/COC(=O)NCCCl)n2C)C1=O` [E.O. 13, 3-(N-chloroethylcarbamoyloxymethyl)-5-methoxy-1-methyl-2-[1H-indole-4,74,7-dione]prop-β-en-α-yl N-chloroethyl carbamate], the results for the IC50 in experiment [1] (setting [3]) and in experiment [2] (setting [4]) were 10 µg/mL (≈ 20.5 µM) and 1.1 µg/mL (≈ 2.25 µM), respectively.
Regarding `Cn1c(/C=C/CO)c(CO)c2c1C(=O)C=C(Nc1ccccc1)C2=O` [E.O. 15, 3-Hydroxymethyl-5-phenylamino-1-methyl-2-[1H-indole-4,7-dione]prop-β-en-α-ol], the IC50 in experiment [1] (setting [3]) was 0.7 µg/mL (≈ 2.07 µM).
`COC1=C(C)C(=O)c2c(c(CO)c(/C=C/CO)n2C)C1=O` [E.O. 18, 1,6-Dimethyl-5-hydroxymethyl-5-methoxy-2-[1H-indole-4,7-dione]prop-β-en-α-ol]: the values for the IC50 in experiment [1] (setting [3]) and in experiment [2] (setting [4]) were 2.4 µg/mL (≈ 8.24 µM) and 2.2 µg/mL (≈ 7.55 µM), respectively.
With `CC1=C(N2CC2)C(=O)c2c(CO)c(/C=C/CO)n(C)c2C1=O` [E.O. 19, 5-Aziridino-1,6-dimethyl-3-hydroxymethyl-2-[1H-indole-4,7-dione]prop-β-en-α-ol], the IC50 in experiment [1] (setting [5]) amounted to 2 µg/mL (≈ 6.62 µM); in experiment [2] (read-out: ID-50 R-1, Table I, bioliquid assay), 0.1 µg/mL (≈ 0.331 µM); in experiment [2] (setting [6]), 0.12 µg/mL (≈ 0.397 µM).
In the case of `COC(=O)/C=C/c1c(C(=O)OC)c2c(n1C)C(=O)C(C)=C(OC)C2=O` [E.O. 32, Methyl 1,6-dimethyl-5-methoxy-3-methoxycarbonyl-2-[1H-indole-4,7-dione]acrylate], the IC50 is 3.5 µg/mL (≈ 10.1 µM) in experiment [1] (setting [7]) and greater than 10 µg/mL in experiment [2] (setting [8]).
Take `COC1=CC(=O)c2c(c(COC(=O)c3ccccc3)c(/C=C/COC(=O)c3ccccc3)n2C)C1=O` [E.O. 36, 3-Benzoxymethyl-5-methoxy-1-methyl-2-[1H-indole-4,7-dione]prop-β-en-α-yl benzoate]: the IC50 in experiment [1] (setting [3]) is 0.7 µg/mL (≈ 1.44 µM); in experiment [2] (setting [4]), 2.6 µg/mL (≈ 5.36 µM).
On to `CCCCNC(=O)OC/C=C/c1c(COC(=O)NCCCC)c2c(n1C)C(=O)C=C(OC)C2=O` [E.O. 37, 3-[N-butylcarbamoyloxymethyl]-5-methoxy-1-methyl-2-[1H-indole-4,7-dione]prop-β-en-α-yl N-butylcarbamate], for which the IC50 in experiment [1] (setting [3]) was greater than 10 µg/mL; in experiment [2] (setting [4]) it was 6.5 µg/mL (≈ 13.7 µM). The “ID-50 L1210” value in experiment [1] (Table VII) is greater than 10 µg/mL.
Consider `COC1=CC(=O)c2c(c(COC(=O)Nc3ccccc3)c(/C=C/COC(=O)Nc3ccccc3)n2C)C1=O` [E.O. 38, 5-Methoxy-1-methyl-3-[N-phenylcarbamoyloxymethyl]-2-[1H-indole-4,7-dione]prop-β-en-α-yl N-phenylcarbamate], for which the results for the IC50 in experiment [1] (setting [3]) and in experiment [2] (setting [4]) were greater than 10 µg/mL and 8.5 µg/mL (≈ 16.5 µM), respectively. The “ID-50 L1210” value in experiment [1] (Table VII) is greater than 10 µg/mL.
For the compound `COC1=CC(=O)c2c(c(CNc3ccccc3)c(/C=C/COC(C)=O)n2C)C1=O` [E.O. 39, 5-Methoxy-1-methyl-3-(N-phenylaminomethyl)-2-[1H-indole-4,7-dione]prop-β-en-α-yl acetate], the IC50 in experiment [1] (setting [3]) was determined as 10 µg/mL; in experiment [2] (setting [4]), 1 µg/mL. For the same compound, the “R-1 activity” value in experiment [2] was “rather high R-1 activity”.
For `COC1=CC(=O)c2c(c(C)c(/C=C/COC(C)=O)n2C)C1=O` [E.O. 41, 5-Methoxy-1,3-dimethyl-2-[1H-indole-4,7-dione]prop-β-en-α-yl acetate], the IC50 was greater than 10 µg/mL in experiment [1] (setting [3]); greater than 10 µg/mL in experiment [2] (setting [4]); greater than 10 µg/mL in experiment [2] (Table VII, read-out: ID-50 R-1). The “ID-50 L1210” value in experiment [1] (Table VII) was greater than 10 µg/mL.
Consider `CC(=O)OC/C=C/c1c(COC(C)=O)c2c(n1C)C(=O)C=C(NCCN(C)C)C2=O` [E.O. 47, 3-Acetoxymethyl-5-[2-(N,N-dimethylamino)ethyl-1-amino]-1-methyl-2-[1H-indole-4,7-dione]prop-β-en-α-yl acetate], for which the IC50 in experiment [1] (setting [3]) is greater than 10 µg/mL; in experiment [2] (setting [4]), 4.4 µg/mL. For the same compound, the “ID-50 L1210” value in experiment [1] (Table VI) is greater than 10 µg/mL. Besides, in experiment [2], the “R-1 activity” value is reported as “rather high activities”.
In the case of `CC(=O)OCc1c2c(n(C)c1/C=C/CO)C(=O)C=C(NCCN(C)C)C2=O` [E.O. 48, 3-Acetoxymethyl-5-[2-(N,N-dimethylamino)ethyl-1-amino]-1-methyl-2-[1H-indole-4,7-dione]prop-β-en-α-ol], the IC50 in experiment [1] (setting [3]) is greater than 10 µg/mL; in experiment [2] (setting [4]), greater than 10 µg/mL; in experiment [2] (Table VI, read-out: ID-50 R-1), greater than 10 µg/mL. Also, in experiment [1] (Table VI), the “ID-50 L1210” value is greater than 10 µg/mL.
Consider `Cn1c(/C=C/CO)c(CO)c2c1C(=O)C=C(NCCc1ccccn1)C2=O` [E.O. 51, 3-Hydroxymethyl-1-methyl-5-[2-pyridylethyl-1-amino]-2-[1H-indole-4,7-dione]prop-β-en-α-ol], for which the results for the IC50 in experiment [1] (setting [3]) and in experiment [2] (setting [4]) were greater than 10 µg/mL and 4.5 µg/mL (≈ 12.2 µM), respectively. Also, the “ID-50 L1210” value in experiment [1] (Table VI) is greater than 10 µg/mL.
As for `CC(=O)OC/C=C/c1c(COC(C)=O)c2c(n1C)C(=O)C=C(NCCc1ccccn1)C2=O` [E.O. 52, 3-Acetoxymethyl-1-methyl-5-[2-pyridylethyl-1-amino]-2-[1H-indole-4,7-dione]prop-β-en-α-yl acetate], the IC50 is greater than 10 µg/mL in experiment [1] (setting [3]) and 3.3 µg/mL in experiment [2] (setting [4]). For the same compound, in experiment [1] (Table VI), the “ID-50 L1210” value was greater than 10 µg/mL. The “R-1 activity” value in experiment [2] was “rather high activities”.
Turning to `CC(=O)OC/C=C/c1c(COC(C)=O)c2c(n1C)C(=O)C=C(N1CC1C)C2=O` (stereo not drawn) [E.O. 53, 3-Acetoxymethyl-1-methyl-5-propyleneamino-2-[1H-indole-4,7-dione]prop-β-en-α-yl acetate], the results for the IC50 in experiment [1] (setting [5]) and in experiment [2] (setting [6]) were 3.4 µg/mL and 1.4 µg/mL, respectively.
For `CCNC1=CC(=O)c2c(c(CO)c(/C=C/CO)n2C)C1=O` [E.O. 56, 5-Ethylamino-3-hydroxymethyl-1-methyl-2-[1H-indole-4,7-dione]prop-β-en-α-ol], the IC50 in experiment [1] (setting [3]) was 5.1 µg/mL (≈ 17.6 µM); in experiment [2] (setting [4]), greater than 10 µg/mL; in experiment [2] (Table VI, read-out: ID-50 R-1) it was greater than 10 µg/mL.
On to `CCNC1=CC(=O)c2c(c(C(=O)OC)c(/C=C/C(=O)OC)n2C)C1=O` [E.O. 57, Methyl 5-ethylamino-3-methoxycarbonyl-1-methyl-2-[1H-indole-4,7-dione]acrylate], for which the IC50 in experiment [1] (setting [7]) came out at 1.4 µg/mL (≈ 4.04 µM); in experiment [2] (setting [8]) it was 3.2 µg/mL (≈ 9.24 µM).
Take `CCNC1=CC(=O)c2c(c(COC(C)=O)c(/C=C/COC(C)=O)n2C)C1=O` [E.O. 58, 3-Acetoxymethyl-5-ethylamino-1-methyl-2-[1H-indole-4,7-dione]prop-β-en-α-yl acetate]: the IC50 is greater than 10 µg/mL in experiment [1] (setting [3]); greater than 10 µg/mL in experiment [2] (setting [4]); greater than 10 µg/mL in experiment [2] (Table VI, read-out: ID-50 R-1). Further, the “ID-50 L1210” value in experiment [1] (Table VI) is greater than 10 µg/mL.

The values are drawn from US5079257A, “Indoloquinone compounds” (priority 1986, dated 1992).
